Where “and” joins values, the source holds several entries; their conditions need not be identical. Equal values may be shown once.
Assay: xn = mol fraction of the nth substance listed

CCNc1ccccc1 + CCCCCCCO
viscosity [mPa·s], 101 kPa
Conditions | 303.15 K | 308.15 K | 313.15 K
x1 = 0.0812 | 4.393 | 4.271 | 4.154
x1 = 0.1589 | 4.051 | 3.907 | 3.774
x1 = 0.2456 | 3.705 | 3.541 | 3.394
x1 = 0.3612 | 3.288 | 3.108 | 2.948
x1 = 0.4304 | 3.063 | 2.875 | 2.711
x1 = 0.5023 | 2.847 | 2.653 | 2.486
x1 = 0.5744 | 2.646 | 2.449 | 2.278
x1 = 0.6415 | 2.474 | 2.273 | 2.103
x1 = 0.7125 | 2.304 | 2.102 | 1.932
x1 = 0.7754 | 2.166 | 1.963 | 1.794
x1 = 0.8214 | 2.071 | 1.867 | 1.7
x1 = 0.8741 | 1.966 | 1.765 | 1.6
x1 = 0.9214 | 1.878 | 1.678 | 1.516

ClCCCl + CCCCCCCO
303.15 K, 101 kPa
Conditions | viscosity [mPa·s]
x2 = 0.1082 | 0.852
x2 = 0.1749 | 0.918
x2 = 0.3034 | 1.082
x2 = 0.456 | 1.415
x2 = 0.5496 | 1.752
x2 = 0.622 | 2.078
x2 = 0.7978 | 3.174
x2 = 0.8642 | 3.699
x2 = 0.9346 | 4.286

C1CCC2=[NH+]CCCN2CC1.c1c[n-]cn1 + CN(C)C=O
298.15 K, 100 kPa
Conditions | viscosity [mPa·s]
x1 = 0.0998 | 1.496
x1 = 0.1996 | 2.353
x1 = 0.2995 | 3.64
x1 = 0.3994 | 5.34
x1 = 0.4994 | 7.345
x1 = 0.5994 | 10.26
x1 = 0.6995 | 14.27
x1 = 0.7996 | 19.37
x1 = 0.8998 | 25.32

ClCCCl + CCCCCCO
303.15 K, 101 kPa
Conditions | viscosity [mPa·s]
x1 = 0.1515 | 2.572
x1 = 0.302 | 1.864
x1 = 0.5095 | 1.235
x1 = 0.6031 | 1.047
x1 = 0.7397 | 0.9
x1 = 0.9017 | 0.73

CC(=O)O + Cc1ccc(C)cc1
viscosity, 101 kPa
Conditions | x2 = 0.0592 | x2 = 0.124 | x2 = 0.1952 | x2 = 0.2738 | x2 = 0.3615 | x2 = 0.4596 | x2 = 0.569 | x2 = 0.6934 | x2 = 0.8354
303.15 K | 0.8817 mPa·s and 0.882 mPa·s | 0.7951 mPa·s and 0.795 mPa·s | 0.7314 mPa·s and 0.731 mPa·s | 0.6755 mPa·s and 0.676 mPa·s | 0.6446 mPa·s and 0.645 mPa·s | 0.6109 mPa·s and 0.611 mPa·s | 0.5923 mPa·s and 0.592 mPa·s | 0.58 mPa·s and 0.58 mPa·s | 0.571 mPa·s and 0.571 mPa·s
308.15 K | 0.8236 mPa·s | 0.7455 mPa·s | 0.685 mPa·s | 0.6373 mPa·s | 0.6095 mPa·s | 0.5737 mPa·s | 0.5606 mPa·s | 0.5476 mPa·s | 0.5393 mPa·s
313.15 K | 0.7876 mPa·s | 0.7172 mPa·s | 0.6617 mPa·s | 0.6171 mPa·s | 0.5816 mPa·s | 0.5522 mPa·s | – | 0.5233 mPa·s | –
318.15 K | 0.7347 mPa·s | 0.6716 mPa·s | 0.6249 mPa·s | 0.5798 mPa·s | 0.5483 mPa·s | 0.5222 mPa·s | 0.5018 mPa·s | 0.4927 mPa·s | 0.4862 mPa·s
323.15 K | 0.6874 mPa·s and 0.687 mPa·s | 0.6339 mPa·s and 0.634 mPa·s | 0.5878 mPa·s and 0.588 mPa·s | 0.5468 mPa·s and 0.547 mPa·s | 0.5158 mPa·s and 0.516 mPa·s | 0.4913 mPa·s and 0.491 mPa·s | 0.4775 mPa·s and 0.478 mPa·s | 0.4674 mPa·s and 0.467 mPa·s | 0.4608 mPa·s and 0.461 mPa·s

CCNc1ccccc1 + CCCCOCCO
viscosity [mPa·s], 101.3 kPa
Conditions | x2 = 0.1017 | x2 = 0.2027 | x2 = 0.3026 | x2 = 0.398 | x2 = 0.5004 | x2 = 0.5947 | x2 = 0.701 | x2 = 0.7971 | x2 = 0.8933
298 K | 2.077 | 2.172 | 2.259 | 2.361 | 2.486 | 2.573 | 2.686 | 2.758 | 2.786
303 K | 1.774 | 1.855 | 1.929 | 2.039 | 2.14 | 2.214 | 2.313 | 2.38 | 2.404
308 K | 1.59 | 1.662 | 1.725 | 1.801 | 1.889 | 1.961 | 2.048 | 2.111 | 2.145
313 K | 1.43 | 1.498 | 1.537 | 1.615 | 1.693 | 1.746 | 1.824 | 1.883 | 1.91
318 K | 1.298 | 1.358 | 1.383 | 1.443 | 1.51 | 1.552 | 1.616 | 1.674 | 1.696

CCNc1ccccc1 + Oc1ccccc1
viscosity [mPa·s], 101 kPa
Conditions | 298.15 K | 313.15 K | 323.15 K
x1 = 0.0794 | 8.63 | 4.35 | 3.14
x1 = 0.1373 | 8.82 | 4.53 | 3.16
x1 = 0.206 | 8.53 | 4.34 | 3.06
x1 = 0.2495 | 8.18 | 4.26 | 3.13
x1 = 0.3418 | 7.28 | 3.96 | 2.97
x1 = 0.4372 | 5.98 | 3.41 | 2.54
x1 = 0.5 | 5.1 | 2.99 | 2.15
x1 = 0.5381 | 4.77 | 2.78 | 2.1
x1 = 0.6445 | 3.68 | 2.31 | 1.76
x1 = 0.7005 | 3.27 | 2.06 | 1.62
x1 = 0.7565 | 2.9 | 1.88 | 1.54
x1 = 0.8744 | 2.22 | 1.55 | 1.24

C[Si]1(C)O[Si](C)(C)O[Si](C)(C)O[Si](C)(C)O1 + CCCCCCCCCCCC
viscosity [mPa·s], 103 kPa
Conditions | 298.15 K | 308.15 K | 318.15 K
x1 = 0.05 | 1.314 | 1.107 | 0.951
x1 = 0.1 | 1.32 | 1.113 | 0.962
x1 = 0.15 | 1.342 | 1.132 | 0.972
x1 = 0.2 | 1.352 | 1.141 | 0.982
x1 = 0.25 | 1.366 | 1.153 | 0.991
x1 = 0.3 | 1.384 | 1.167 | 1
x1 = 0.35 | 1.402 | 1.183 | 1.012
x1 = 0.3999 | 1.431 | 1.202 | 1.028
x1 = 0.45 | 1.454 | 1.225 | 1.048
x1 = 0.5 | 1.489 | 1.251 | 1.068
x1 = 0.5501 | 1.517 | 1.278 | 1.089
x1 = 0.6 | 1.554 | 1.309 | 1.114
x1 = 0.65 | 1.6 | 1.345 | 1.142
x1 = 0.6999 | 1.643 | 1.38 | 1.173
x1 = 0.75 | 1.7 | 1.426 | 1.209
x1 = 0.7999 | 1.759 | 1.473 | 1.248
x1 = 0.85 | 1.828 | 1.523 | 1.292
x1 = 0.9 | 1.91 | 1.588 | 1.343
x1 = 0.95 | 1.985 | 1.652 | 1.39
